# Measured values published in article PMC11109624, “Celastrol Ameliorates Neuronal Mitochondrial Dysfunction Induced by Intracerebral Hemorrhage via Targeting cAMP‐Activated Exchange Protein‐1” (Advanced Science, 2024).
# Biological target: T1, cNMP-EPAC-1 (cNMP domain of EPAC-1, 149-318) (Homo sapiens, UniProt O95398)
# T1 construct: gene RAPGEF3; pGEX4T1 N-terminal GST tag, removed by protease; E. coli BL21(DE3); glutathione, Ni-NTA and Superdex 75
# T1 sequence (O95398 191-360): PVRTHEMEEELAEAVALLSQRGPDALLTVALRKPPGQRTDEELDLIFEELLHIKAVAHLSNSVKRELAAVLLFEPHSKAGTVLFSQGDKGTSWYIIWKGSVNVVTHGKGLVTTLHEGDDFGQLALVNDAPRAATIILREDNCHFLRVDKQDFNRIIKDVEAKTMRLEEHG
# Experiment: isothermal titration calorimetry (MicroCal iTC200)
# Assay type: binding
structure (smiles),measurement,value
CC1=C(O)C(=O)C=C2C1=CC=C1[C@@]2(C)CC[C@@]2(C)[C@@H]3C[C@](C)(C(=O)O)CC[C@]3(C)CC[C@]12C [celastrol],Kd,1570 nM
